Assay results: patent US9827221B2, “Crystalline solids of a metAP-2 inhibitor and methods of making and using same” (Zafgen, Inc., priority 2010, dated 2017)
Values after ≈ are worked out from the molar mass of the structure shown.

Experiments:
Format in all cases: physicochemical
[1] = Solid-form stability of Form C on storage (conversion to Form A)
Description: A sample of amorphous material of 6-O-(4-dimethylaminoethoxy)cinnamoyl fumagillol was exposed to vapors of neat trichloroethane at ambient temperature. The amorphous form readily deliquesced. The deliquesced sample was stored in a cold environment and evaporated to dryness using a Genevac centrifuge evaporator. The sample was then sealed, submerged in dry ice for ca. 15 minutes and stored in a freezer ([…]). The sample remained glassy during storage in the freezer (−20° C., 9 days), and was then stored at 5° C. (9 days), resulting in crystalline, Form C (see FIG. 13 for micrograph). A portion of the Form C sample was left at ambient temperature.

[2] = Solubility in diisopropyl ether; conditions: organic solvent or mixture
[3] = Solubility in solvent (e.g. aqueous solution that may include a buffer) with pH greater or equal to about 8.0; conditions: pH 8, aqueous buffer, ca. 20° C.
[4] = Stability of the crystalline form to grinding (mortar and pestle; PLM, XRPD); conditions: ca. 500 mg ground with mortar and pestle for approximately 5 minutes
Description: A sample (ca. 500 mg) from the scale-up of crystalline compound as in Example 2 was placed onto a mortar (Agate material, H: 35 mm, L: 77 mm). The sample was then ground using a pestle (length: 80 mm; grinding diameter: 17 mm) for approximately 5 minutes. Throughout the grinding procedure, the sample was allowed to stand for ca. 10 seconds intermittently to ensure that significant heat was not generated. PLM indicated birefrigent material with particle sizes measuring between about 20 μm and 80 μm in length.

SMILES	relative stability of the crystalline forms ([1]; Form C relative to Form A)	solid form conversion on storage ([1]; sample left at ambient temperature)	solid form conversion on storage ([1]; sample stored at 5° C.)	solubility ([2]; 50° C.) [mg/mL]	solubility ([2]; room temperature (ca. 20° C.)) [mg/mL]	solubility [3] [mg/mL]	crystallinity after grinding (XRPD) [4]
CO[C@@H]1[C@H](OC(=O)/C=C/c2ccc(OCCN(C)C)cc2)CCC2(CO2)[C@H]1C1(C)OC1CC=C(C)C (stereo partly shown) [Form C, 6-O-(4-dimethylaminoethoxy)cinnamoyl fumagillol]	metastable relative to Form A	converted to Form A after three days	converted to Form A after three days	–	–	–	–
CO[C@@H]1[C@H](OC(=O)/C=C/c2ccc(OCCN(C)C)cc2)CCC2(CO2)[C@H]1C1(C)OC1CC=C(C)C (stereo partly shown) [Form A, 6-O-(4-dimethylaminoethoxy)cinnamoyl fumagillol]	–	–	–	~102 (≈ 204 mM)	~25 (≈ 50 mM)	< 0.2	remained highly crystalline
